{
  "source": "patent US20180169135A1",
  "about": "“METHOD FOR PREVENTING TRANSPLANT FAILURE IN A HOST” (Universiteit Maastricht, priority 2015, published 2018)",
  "molecular_target": "Histon H3 (Homo sapiens, UniProt P68431)",
  "data": [
    {"substance": "heparin [UFH]", "values": [
      {"measurement": "neutralization of the cytotoxic activity of Histon H3", "result": "neutralize the cytotoxic activity of Histon H3"}
    ]}
  ]
}
